Reference: ChEMBL document CHEMBL1201862, “PubChem BioAssay data set” (2004)
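These data come from cells grown in 96-well plates and exposed to compound for 48 hours at five concentrations. The concentration for 50% growth inhibition is given as GI50.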 Calls of active or inactive are those of the source. Rule as the data show it: active = GI50 up to about 1.1 µM and inactive = higher.

Tests used:
Assay in all cases: DTP human tumour cell line panel, 48 h
OVCAR-8 = system: OVCAR-8
COLO 205 = system: COLO 205
NCI-H460 = system: NCI-H460
786-0 = system: 786-0
UO-31 = system: UO-31
A549 = system: A549
K562 = system: K562
CCRF-CEM = system: CCRF-CEM
HOP-92 = system: HOP-92
RXF 393 = system: RXF 393
SF-268 = system: SF-268
SF-539 = system: SF-539
SK-OV-3 = system: SK-OV-3
SNB-19 = system: SNB-19
SN12C = system: SN12C
KM12 = system: KM12
SK-MEL-2 = system: SK-MEL-2
OVCAR-5 = system: OVCAR-5
TK-10 = system: TK-10
LOX IMVI = system: LOX IMVI

Row | Structure (SMILES) | GI50 (OVCAR-8) | GI50 (COLO 205) | GI50 (NCI-H460) | GI50 (786-0) | GI50 (UO-31) | GI50 (A549) | GI50 (K562) | GI50 (CCRF-CEM) | GI50 (HOP-92) | GI50 (RXF 393) | GI50 (SF-268) | GI50 (SF-539) | GI50 (SK-OV-3) | GI50 (SNB-19) | GI50 (SN12C) | GI50 (KM12) | GI50 (SK-MEL-2) | GI50 (OVCAR-5) | GI50 (TK-10) | GI50 (LOX IMVI)
1 | CC1(C)Oc2ccccc2[N+]([O-])=C1c1ccccc1 | > 100 µM (inactive) | > 100 µM (inactive) | > 100 µM (inactive) | > 100 µM (inactive) | > 100 µM (inactive) | > 100 µM (inactive) | > 100 µM (inactive) | > 100 µM (inactive) | > 100 µM (inactive) | > 100 µM (inactive) | > 100 µM (inactive) | > 100 µM (inactive) | > 100 µM (inactive) | > 100 µM (inactive) | > 100 µM (inactive) |  |  |  |  | 
2 | Cc1c(O)nc(-n2[nH]c3c(c2=O)CCCC3)[nH]c1=O | > 100 µM (inactive) | > 100 µM (inactive) | > 100 µM (inactive) | > 100 µM (inactive) | > 100 µM (inactive) |  | > 100 µM (inactive) | > 100 µM (inactive) | > 100 µM (inactive) | > 100 µM (inactive) | > 100 µM (inactive) |  | > 100 µM (inactive) | > 100 µM (inactive) | > 100 µM (inactive) | > 100 µM (inactive) | > 100 µM (inactive) | > 100 µM (inactive) | > 100 µM (inactive) | 
3 | COc1cccc(C2CC23C(=O)NC(=O)NC3=O)c1 (centres undefined) | > 100 µM (inactive) | > 100 µM (inactive) | > 100 µM (inactive) | > 100 µM (inactive) | > 100 µM (inactive) | > 100 µM (inactive) | > 100 µM (inactive) | > 100 µM (inactive) | > 100 µM (inactive) |  | > 100 µM (inactive) | > 100 µM (inactive) | > 100 µM (inactive) | > 100 µM (inactive) | > 100 µM (inactive) | > 100 µM (inactive) | > 100 µM (inactive) | > 100 µM (inactive) | > 100 µM (inactive) | > 100 µM (inactive)
4 | NNC(=S)N/N=C(/C(=O)Nc1ccc([N+](=O)[O-])cc1)c1nc2ccc([N+](=O)[O-])cc2nc1O | > 100 µM (inactive) | > 100 µM (inactive) | > 100 µM (inactive) | > 100 µM (inactive) | > 100 µM (inactive) | > 100 µM (inactive) | > 100 µM (inactive) | > 100 µM (inactive) | > 100 µM (inactive) |  | > 100 µM (inactive) | > 100 µM (inactive) | > 100 µM (inactive) |  | > 100 µM (inactive) | > 100 µM (inactive) | > 100 µM (inactive) | > 100 µM (inactive) | > 100 µM (inactive) | > 100 µM (inactive)
5 | N#C/N=C(/N)NCN/C(N)=N\C#N | > 100 µM (inactive) | 64.6 µM (inactive) | > 100 µM (inactive) | 23.1 µM (inactive) | > 100 µM (inactive) | > 100 µM (inactive) | 43.7 µM (inactive) | > 100 µM (inactive) | > 100 µM (inactive) | 73.3 µM (inactive) | > 100 µM (inactive) | > 100 µM (inactive) | > 100 µM (inactive) | > 100 µM (inactive) | > 100 µM (inactive) | > 100 µM (inactive) | > 100 µM (inactive) | > 100 µM (inactive) | > 100 µM (inactive) | 
6 | O=C1CSC(c2cccc(Cl)c2)N1c1ccc(-c2ccc(-n3c(-c4ccccc4)nc4ccccc4c3=O)cc2)cc1 (centres undefined) | 46.1 µM (inactive) | 34.6 µM (inactive) | 32.9 µM (inactive) | 43.6 µM (inactive) | 21.6 µM (inactive) | 54.2 µM (inactive) | 35.6 µM (inactive) | 29.9 µM (inactive) | 17.1 µM (inactive) |  | 54.1 µM (inactive) | 72.3 µM (inactive) | > 100 µM (inactive) | > 100 µM (inactive) | 62.4 µM (inactive) | 22.3 µM (inactive) | 25.2 µM (inactive) | 64.6 µM (inactive) | 32.6 µM (inactive) | 35.1 µM (inactive)
7 | Nc1ncn([C@@H]2C=C(CO)C(O)C2O)c(=O)n1 (some centres undefined) | 79.3 µM (inactive) | 37.8 µM (inactive) | 28.6 µM (inactive) | 55.5 µM (inactive) | 50.7 µM (inactive) | 66.5 µM (inactive) | 43.6 µM (inactive) | 45.5 µM (inactive) | > 100 µM (inactive) |  | > 100 µM (inactive) | > 100 µM (inactive) | > 100 µM (inactive) | > 100 µM (inactive) | > 100 µM (inactive) | 85.3 µM (inactive) | > 100 µM (inactive) | > 100 µM (inactive) | > 100 µM (inactive) | 44.4 µM (inactive)
8 | Cc1cc(NS(=O)(=O)c2ccc(/N=N/c3c(Nc4ccccc4)nn(-c4ccc(S(=O)(=O)Nc5ccncn5)cc4)c3C)cc2)no1 | > 100 µM (inactive) | > 100 µM (inactive) |  | > 100 µM (inactive) | > 100 µM (inactive) | > 100 µM (inactive) | 86.1 µM (inactive) | > 100 µM (inactive) | > 100 µM (inactive) |  |  | > 100 µM (inactive) | > 100 µM (inactive) | > 100 µM (inactive) | > 100 µM (inactive) | > 100 µM (inactive) | > 100 µM (inactive) | > 100 µM (inactive) | > 100 µM (inactive) | > 100 µM (inactive)
9 | COc1ccc2[nH]c3ccc4cc[n+](CCN5CCC(C6CCN(CC[n+]7ccc8ccc9[nH]c%10ccc(OC)cc%10c9c8c7)CC6)CC5)cc4c3c2c1 | 0.405 µM (active) |  |  | 0.249 µM (active) | > 100 µM (inactive) | 0.409 µM (active) | 0.228 µM (active) | 0.274 µM (active) | 0.303 µM (active) | 0.569 µM (active) | 1.97 µM (inactive) | 2.65 µM (inactive) | 6.37 µM (inactive) | 1.38 µM (inactive) | 0.661 µM (active) | 0.818 µM (active) | > 52.7 µM (inactive) | > 76 µM (inactive) | 21.4 µM (inactive) | 
10 | CCCCN1/C(=N/Nc2n[nH]c(=O)c3ccccc23)SCC1c1ccc(Cl)cc1 (centres undefined) | 15.4 µM (inactive) | 11.8 µM (inactive) | 3.59 µM (inactive) | 20 µM (inactive) | 18.7 µM (inactive) | 5.26 µM (inactive) | 8.17 µM (inactive) |  | 57.9 µM (inactive) | 20.1 µM (inactive) | 6.64 µM (inactive) | 12.7 µM (inactive) | 21.8 µM (inactive) | 10.6 µM (inactive) | 24.6 µM (inactive) | 5.01 µM (inactive) | 20.9 µM (inactive) | 29.1 µM (inactive) | 33.9 µM (inactive) | 
11 | CCOC(=O)/C(=C/c1cccc(Cl)c1)N(CC)CC | 42.2 µM (inactive) | > 100 µM (inactive) | 46.5 µM (inactive) | 67.9 µM (inactive) | 37.1 µM (inactive) | 36.2 µM (inactive) | 52.2 µM (inactive) | 43.1 µM (inactive) | 25.5 µM (inactive) |  | 52.7 µM (inactive) | 73.5 µM (inactive) | 35.1 µM (inactive) |  | 45.9 µM (inactive) | 39.1 µM (inactive) | 29.6 µM (inactive) | > 100 µM (inactive) | > 100 µM (inactive) | 81.8 µM (inactive)
12 | CSC(SC)(C(=O)O)c1cc(-c2c(Cl)cccc2Cl)no1 | > 100 µM (inactive) | 34.4 µM (inactive) | 34.9 µM (inactive) | 39.5 µM (inactive) | 25.1 µM (inactive) | 55.1 µM (inactive) | 50.8 µM (inactive) | 26.4 µM (inactive) | 98.9 µM (inactive) |  | 51.9 µM (inactive) | > 100 µM (inactive) | > 100 µM (inactive) | > 100 µM (inactive) | 62.1 µM (inactive) |  | 26.3 µM (inactive) | 60.1 µM (inactive) | > 100 µM (inactive) | 35.6 µM (inactive)
13 | CC(C)c1ccccc1NC(=O)C(=O)Cc1nc2ccccc2s1 | > 100 µM (inactive) | > 100 µM (inactive) | > 100 µM (inactive) | > 100 µM (inactive) | > 100 µM (inactive) | > 100 µM (inactive) |  | > 100 µM (inactive) | > 100 µM (inactive) | > 100 µM (inactive) | > 100 µM (inactive) | > 100 µM (inactive) | > 100 µM (inactive) | > 100 µM (inactive) | > 100 µM (inactive) | > 100 µM (inactive) | > 100 µM (inactive) |  | > 100 µM (inactive) | 
14 | COc1ccc(/C=C/c2cc(OC)c(OC)c(OC)c2)cc1O[Si](C)(C)C(C)(C)C | 2.74 µM (inactive) | 15.7 µM (inactive) | 4.15 µM (inactive) | 10.4 µM (inactive) | 7.31 µM (inactive) | 14 µM (inactive) |  |  | 15.6 µM (inactive) | 3.09 µM (inactive) | 15.8 µM (inactive) | 2.32 µM (inactive) | 52.7 µM (inactive) | 3.44 µM (inactive) | 7.16 µM (inactive) |  | 7.8 µM (inactive) | 33.5 µM (inactive) | 27.1 µM (inactive) | 
15 | Cc1ccc(S(=O)(=O)N2CCCN(S(=O)(=O)c3ccc(C)cc3)CCN(S(=O)(=O)c3ccc(C)cc3)CCCSCC2)cc1 | > 100 µM (inactive) | > 100 µM (inactive) | > 100 µM (inactive) | 45.2 µM (inactive) | > 100 µM (inactive) | > 100 µM (inactive) | > 100 µM (inactive) | > 100 µM (inactive) | > 100 µM (inactive) | > 100 µM (inactive) | > 100 µM (inactive) | > 100 µM (inactive) | > 100 µM (inactive) | > 100 µM (inactive) | > 100 µM (inactive) |  | > 100 µM (inactive) | > 100 µM (inactive) |  | 
